{"source": "patent US20230310627A1", "about": "“COMBINATION THERAPY WITH ANTI-TROP-2 ANTIBODIES AND PARP INHIBITORS” (priority 2021, published 2023)", "key": {"colorectal cancer": {"tested_on": "colorectal cancer", "details": "continuous olaparib administration; cited from earlier work"}, "TNBC xenografts": {"tested_on": "TNBC xenografts", "details": "nude mice bearing TNBC xenografts; independent of BRCA1/2 mutation status; cited from earlier work"}, "patients with mTNBC": {"tested_on": "patients with mTNBC", "assay": "Phase 1b/2 open-label study of SG in combination with talazoparib (NCT04039230)", "type": "in vivo, human", "details": "every 21 days", "experimental": "Study Design: In a Phase 1b/2, open-label study, SG was administered in combination with talazoparib for patients with mTNBC (clinicaltrials.gov#NCT04039230; FIG. 2A). Treatment cycles were continued until unacceptable toxicity or progression of disease at the discretion of the treating physician. Within 4 weeks prior to the first dose of study treatment administration, baseline evaluations were completed which included patient medical and surgical history, a physical examination with vital signs and performance evaluation, laboratories, and tumor assessment imaging. Once on active treatment, patients were administered SG and talazoparib over a 21 day cycle or 28 day cycle. […] All patients were monitored closely over the course of their treatment and NCI CTC v5.0 was used to grade all adverse events and provide dose reduction, delay, or cessation guidelines in the event of treatment-related toxicity. […]\nStudy Population: Patients enrolled were 18 years of age or older with histological or cytological confirmation of TNBC as determined by the local institution, with metastatic disease documented by CT or MRI imaging, and currently have measurable disease by CT/MRI. […]\nEndpoints: Safety and tolerability of SG in combination with talazoparib was evaluated from adverse events, standard safety laboratories, physical examination, vital signs, and EKG. […]"}, "[1]": {"details": "veliparib in combination with topotecan; cited from earlier work"}, "[2]": {"tested_on": "phosphorylated histone H2AX (γH2AX)", "assay": "Flow cytometry of phosphorylated histone H2AX (γH2AX)", "type": "cell-based", "experimental": "Flow Cytometry: For flow cytometry detection of γH2AX (also known as g-H2AX), 1×10^6 cells were collected and fixed with 4% paraformaldehyde at 4° C. for 20 min and then permeabilized with 0.25% Triton X-100 in PBS. After blocking with 2% BSA in PBS at 4° C. for 20 min, the cells were stained with Alexa Fluor® 488 conjugated anti-phospho Histone H2A.X antibody (EMD Millipore, clone JBW301, #05-636-AF488) at 4° C. for 1 h. The cells were then washed twice with 2% BSA in PBS and counterstained with DAPI (Abcam, #ab228549). For flow cytometry detection of apoptotic cells, 1×10^6 cells were collected, and the staining was performed by using eBioscience™ Annexin V Apoptosis Detection Kit APC (Invitrogen, #88-8007) according to manufacturer's instruction. Samples were examined using a FACSAria flow cytometer. […]\nWithout wishing to be bound by any theory, sequential PARPi is believed to enhance SG toxicity through stabilization of TOP1CC that persist following SG washout due to the high delivered SN38 concentration in tumor cells (FIG. 3A). TOP1CC was quantified by two methods: the RADAR (Rapid Approach to DNA Adduct Recovery) assay, which detects TOP1 covalently bound to DNA, and by immunofluorescence. […] Persistent TOP1CC are expected to lead to DNA damage including double-strand DNA breaks, which were quantified using flow cytometry to assess phosphorylated histone H2AX (γH2AX) staining. […]"}, "[3]": {"tested_on": "patients with previously treated mTNBC", "details": "phase III ASCENT; cited from earlier work"}, "[4]": {"tested_on": "normal diploid cells (WI-38)", "assay": "In vitro cytotoxicity of sequential SG then talazoparib in normal diploid cells", "type": "cell-based", "experimental": "Cell Lines and Cell Culture: All cell lines were obtained from the MGH Center for Molecular Therapeutics cell bank in and underwent high-density SNP typing to confirm their identity. All experiments shown were performed within less than 6 months' passage of all lines since acquisition. Cells were maintained at 37° C. in 5% CO2. MDA-MB-468 cells were grown in RPMI (Lonza) supplemented with 10% FBS (SAFC), 1% penicillin (Gibco), streptomycin (Gibco). WI-38 cells were grown in DMEM (Lonza) supplemented with 10% FBS (SAFC), 1% penicillin (Gibco), streptomycin (Gibco).\nTROP2-expressing TNBC cells or normal diploid cells were exposed to SG, followed by washout, then PARPi treatment with Talazoparib."}, "[5]": {"target": "T1, TOP1 cleavage complexes (TOP1CC) (Homo sapiens, UniProt P11387)", "T1 construct": "endogenous in cells; host or cells: MDA-MB-468 breast cancer cells (immunofluorescence); TNBC cell models (RADAR)", "T1 sequence (P11387 1-765)": "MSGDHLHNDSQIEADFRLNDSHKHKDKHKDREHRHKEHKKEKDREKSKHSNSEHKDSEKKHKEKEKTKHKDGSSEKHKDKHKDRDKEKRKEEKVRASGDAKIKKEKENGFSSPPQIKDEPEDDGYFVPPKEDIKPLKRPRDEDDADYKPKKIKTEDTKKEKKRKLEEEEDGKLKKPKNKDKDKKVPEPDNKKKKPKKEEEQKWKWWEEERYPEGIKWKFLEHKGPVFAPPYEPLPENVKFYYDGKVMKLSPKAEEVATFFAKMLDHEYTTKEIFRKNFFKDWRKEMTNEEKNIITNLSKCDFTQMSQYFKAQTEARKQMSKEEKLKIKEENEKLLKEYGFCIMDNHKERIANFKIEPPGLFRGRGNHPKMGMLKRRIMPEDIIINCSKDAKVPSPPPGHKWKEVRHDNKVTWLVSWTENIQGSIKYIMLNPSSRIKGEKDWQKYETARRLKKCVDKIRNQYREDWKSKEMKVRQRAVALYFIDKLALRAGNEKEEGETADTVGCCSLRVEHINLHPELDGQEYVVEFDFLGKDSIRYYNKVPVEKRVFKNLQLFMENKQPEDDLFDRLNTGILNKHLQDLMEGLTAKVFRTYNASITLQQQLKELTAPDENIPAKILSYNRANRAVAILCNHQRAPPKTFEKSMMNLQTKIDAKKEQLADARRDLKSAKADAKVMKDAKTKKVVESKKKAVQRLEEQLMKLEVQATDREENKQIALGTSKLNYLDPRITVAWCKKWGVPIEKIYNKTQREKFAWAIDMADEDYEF", "assay": "TOP1CC detection by RADAR assay and immunofluorescence", "type": "cell-based", "experimental": "Modification of the RADAR assay for detection of TOP1CC: Detection of TOP1CC was performed according to the published protocol (PMID: 34408146) with minor modification. After SG and/or TZP treatment, 1×10^6 cells per condition were washed with 1×PBS and lysed with 600 μl DNAzol (Invitrogen) at 4° C. for 10 min, followed by precipitation with 300 μl 100% ethanol. The nucleic acids were collected by centrifugation at 15,000 rpm for 10 min at 4° C., washed with 75% ethanol twice and resuspended in 200 μl TE buffer. The samples were then heated at 65° C. for 15 min, followed by shearing with sonication (40% output for 10 s pulse and 10 s rest for four times). […] The concentration of the sample was quantified by NanoDrop. […]\nImmunofluorescence: To visualize TOP1CC by immunofluorescence, cells were plated into 96-well plates having #1.5 glass coverslips (Cellvis, P98-1.5H-N). […] Images were compiled and quantified using ImageJ software.\nWithout wishing to be bound by any theory, sequential PARPi is believed to enhance SG toxicity through stabilization of TOP1CC that persist following SG washout due to the high delivered SN38 concentration in tumor cells (FIG. 3A). TOP1CC was quantified by two methods: the RADAR (Rapid Approach to DNA Adduct Recovery) assay, which detects TOP1 covalently bound to DNA, and by immunofluorescence. […]"}}, "data": [{"compound": "O=C(c1cc(Cc2n[nH]c(=O)c3ccccc23)ccc1F)N1CCN(C(=O)C2CC2)CC1", "note": "[olaparib]", "values": [{"measurement": "toxicity of the combination with irinotecan", "setting": "colorectal cancer", "value": "higher-than-expected toxicities and considered intolerable"}, {"measurement": "tumor growth inhibition in combination with sacituzumab govitecan", "setting": "TNBC xenografts", "value": "Synthetic lethality and synergistic inhibition of tumor growth"}]}, {"compound": "CNCc1ccc(-c2[nH]c3cc(F)cc4c3c2CCNC4=O)cc1", "note": "[rucaparib]", "values": [{"measurement": "tumor growth inhibition in combination with sacituzumab govitecan", "setting": "TNBC xenografts", "value": "Synthetic lethality and synergistic inhibition of tumor growth"}]}, {"compound": "Cn1ncnc1[C@H]1c2n[nH]c(=O)c3cc(F)cc(c23)N[C@@H]1c1ccc(F)cc1", "note": "[talazoparib]", "values": [{"measurement": "recommended phase-2 dose (R2PD)", "setting": "patients with mTNBC; talazoparib on days 15-21 after SG", "value": 1, "unit": "mg"}, {"measurement": "tumor growth inhibition in combination with sacituzumab govitecan", "setting": "TNBC xenografts", "value": "Synthetic lethality and synergistic inhibition of tumor growth"}]}, {"compound": "CC[C@@]1(O)C(=O)OCc2c1cc1n(c2=O)Cc2cc3c(CN(C)C)c(O)ccc3nc2-1", "note": "[topotecan]", "values": [{"measurement": "MTD in the combination relative to single-agent MTD", "setting": "[1]", "value": 40, "unit": "%"}]}, {"compound": "C[C@]1(c2nc3c(C(N)=O)cccc3[nH]2)CCCN1", "note": "[veliparib]", "values": [{"measurement": "MTD in the combination relative to single-agent MTD", "setting": "[1]", "value": 3, "unit": "%"}]}, {"compound": "sacituzumab govitecan [SG]", "values": [{"measurement": "DNA damage (γH2AX staining) after SG washout", "setting": "[2]", "value": "resolution of DNA damage within 24 hours"}, {"measurement": "recommended phase-2 dose (R2PD)", "setting": "patients with mTNBC; sequential SG on days 1,8 with talazoparib", "value": 10, "unit": "mg/kg"}, {"measurement": "median overall survival", "setting": "[3]", "value": 12.1, "unit": "months"}, {"measurement": "median progression-free survival", "setting": "[3]", "value": 5.6, "unit": "months"}, {"measurement": "SG sensitivity (cytotoxicity)", "setting": "[4]", "value": "little SG sensitivity"}, {"measurement": "TOP1CC following SG washout", "setting": "[5]", "value": "resolved entirely within two hours"}]}]}
